The values that follow come from patent US20230105212A1, “BIPHENYL DERIVATIVE INHIBITOR, PREPARATION METHOD THEREFOR AND USE THEREOF” (SHANGHAI HANSOH BIOMEDICAL CO., LTD., priority 2020, published 2023).

The test system of assay [1] is NFAT-luc2/PD1 Jurkat cells. Briefly: In vitro cytotoxicity on NFAT-luc2/PD1 Jurkat cells (CellTiter-Glo). Type of assay: cell-based. Conditions: 72 hours. How it is done: (§1) Test Embodiment 5. In Vitro Cytotoxicity of the Compounds of the Present Disclosure on NFAT-Luc2/PD1 Jurkat Cells and MC38-hPDL1 Cells
(§2) Experimental purpose: To test the in vitro cytotoxicity of compounds on NFAT-luc2/PD1 Jurkat cells and MC38-hPDL1 cells.
(§3) When the cells were cultured to an appropriate degree of confluency, the cells were collected, and the cells was adjusted in an appropriate cell concentration by complete medium, then the cell suspension was plated in a 96-well plate, 90 μL per well, and put in a 37° C., 5% CO2 incubator overnight; compound solutions of different concentrations were prepared by DMSO and medium, and a vehicle control was set; compound solutions were added to a 96-well plate, 10 μL per well, and put in a 37° C., 5% CO2 incubator and cultured for 72 hours. After that, CellTiter-Glo solution was added, the mixture was shaken and mixed evenly, incubated in the dark for 10 minutes, and a BioTek Synergy H1 microplate reader was used for reading.
(§4) Luminescence signal value was used to calculate the inhibition rate, and the concentration and inhibition rate were fitted by nonlinear regression curve using Graphpad Prism software to obtain IC50 values, as shown in the following table: […]

The target in assay [2] is T1, PD-L1 protein on the surface of MC38-hPDL1 tumor cells (Homo sapiens, UniProt Q9NZQ7).
T1 construct: expressed in transfected cells; host or cells: MC38-hPDL1 (mouse colon cancer cells)
T1 sequence (Q9NZQ7 19-290): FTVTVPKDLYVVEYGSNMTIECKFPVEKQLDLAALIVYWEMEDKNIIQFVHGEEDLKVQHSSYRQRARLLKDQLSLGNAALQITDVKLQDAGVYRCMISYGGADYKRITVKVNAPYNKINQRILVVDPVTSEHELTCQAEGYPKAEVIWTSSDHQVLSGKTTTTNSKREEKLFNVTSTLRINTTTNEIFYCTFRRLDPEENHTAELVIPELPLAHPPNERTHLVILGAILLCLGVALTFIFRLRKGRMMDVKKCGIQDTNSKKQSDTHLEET
The assay is described as follows: Induction of endocytosis of PD-L1 on the surface of tumor cells (flow cytometry). Conditions: 16 hours incubation; for Emax: MC38-hPDL1 cells, read-out: MC38 maximum endocytosis rate; for IC50: inducing endocytosis of PD-L1, MC38-hPDL1 cells, read-out: MC38 IC50. Format: cell-based. The method, boiled down: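 IC50 comes from nonlinear fits of endocytosis rate, calculated from the loss of surface PE-anti-CD274 flow signal relative to vehicle. Cells were MC38 mouse colon cancer cells engineered to express high human PD-L1. Compound exposure lasted 16 h at 37 °C, 5% CO2.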

The test system of a further assay is MC38-hPDL1 cells. The assay is described as follows: In vitro cytotoxicity on MC38-hPDL1 cells (CellTiter-Glo). Type of assay: cell-based, mouse. How it is done: as §1, §2, §3, §4
In a further assay the target is T2, human PD-1/PD-L1 binding (Homo sapiens, UniProt Q9NZQ7).
T2 construct: PD-L1-His protein (19 to 238 amino acids) (Abcam #ab167713); purchased Abcam (PD-L1-His); R&D (PD-1-Fc) ab167713; 1086-PD
T2 sequence (Q9NZQ7 19-238): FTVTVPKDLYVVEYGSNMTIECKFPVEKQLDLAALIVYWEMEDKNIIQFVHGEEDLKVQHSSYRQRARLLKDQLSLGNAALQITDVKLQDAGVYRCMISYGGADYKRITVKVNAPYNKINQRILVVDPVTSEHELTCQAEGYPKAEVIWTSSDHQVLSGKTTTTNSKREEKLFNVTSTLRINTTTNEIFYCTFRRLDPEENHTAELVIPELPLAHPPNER
The assay is described as follows: Inhibition of human PD-1/PD-L1 binding (TR-FRET/HTRF). Conditions: TR-FRET, PD-L1-His and PD-1-Fc; read-out: PD-1/PD-L1 binding IC50. In a few lines: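 PD-L1-His (aa 19–238, diluted to 10 nM) and PD-1-Fc (aa 25–167, diluted to 20 nM) incubated with compounds (10 μM or 1 μM top, 3-fold, 11 doses) 60 min at room temperature, then anti-6HIS Eu cryptate/anti-human IgG-XL665 added for 3 h RT or overnight 4 °C. HTRF 665/620 nm ratio gave inhibition and IC50.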

The test system of assay [3] is CHO-PDL1/Jurkat-PD1 cell pathway. Briefly: Inhibition of CHO-PDL1/Jurkat-PD1 cell pathway (NFAT luciferase reporter). Type of assay: cell-based. Conditions: for EC50: 6 hours incubation, luciferase signal; for maximal fold induction: relative to the signal value of the non-dosed group, read-out: Maximum induction fold. How it is done: Test Embodiment 3. Inhibitory Effect of the Compounds of the Present Disclosure on CHO-PDL1/Jurkat-PD1 Cell Pathway
Experimental purpose: The purpose of this test embodiment was to test the inhibitory effect of compounds on the CHO-PDL1/Jurkat-PD1 cell pathway.
Experimental method: Two stably transfected cell lines were included in this experiment, CHO-K1 cells stably transfected with PD-L1 and Jurkat cells stably transfected with PD-1 and NFAT luciferase reporter genes. Compounds were incubated with the two cell lines. Then, due to the inhibitory effect on the PD-1/PD-L1 pathway, the activation degree of Jurkat cells changed, so that the level of the reporter gene NFAT in the downstream of Jurkat cells changed, and the level of NFAT was characterized by detecting the signal value of luciferase, so that the inhibitory effect of the test compound on CHO-PDL1/Jurkat-PD1 pathway was characterized.
CHO-PDL1 cells (Promega, #J1252) were cultured to a suitable cell density. After digestion, the cells were resuspended by complete medium to become a suitable density of cell suspension. The cell suspension was plated 100 μL per well on a 96-well plate (Corning, #3610), and placed in a 37° C., 5% CO2 incubator and incubated overnight, and assay medium (RPMI 1640+2% FBS, RPMI 1640 Cat. No.: Gibco, #22400089, FBS Cat. No.: Gibco, #10091148) was used to prepare compound solutions of different concentrations. NFAT-luc2/PD1 Jurkat cells (Promega, #J1252) were collected and resuspended to the appropriate cell density using assay medium. The supernatant of the CHO-PDL1 cell culture plate was aspirated, and 40 μL of the prepared compound solution and 40 μL of resuspended NFAT-luc2/PD1 Jurkat cells were added, and incubated in a 5% CO2 incubator at 37° C. for 6 hours, and the cell plate was taken out, then 40 μL of One-Glo reagent (Promega, #E6120) was added to each well, shaked and mixed well, incubated in the dark at room temperature for 10 minutes, then put into a microplate reader and the luminescence program was used to read the luminescence value of the cell plate.
The EC50 value was fitted according to the compound concentration and the luminescence signal value, and the maximum induction fold of each compound relative to the signal value of the non-dosed group was calculated, as shown in Table 3.

A further assay concerns the target T3, human PD-L1 protein (Homo sapiens, UniProt Q9NZQ7).
T3 construct: purchased Acro Biosystems PD1-H5229
The assay is described as follows: Thermal shift: melting temperature of PD-L1 protein. Format: binding. Conditions: compound 10 μM, PD-L1 protein 2 μM, Tm minus DMSO vehicle control; read-out: ΔTm (° C.). In a few lines:
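Human PD-L1 at 2 μM final was tested in […], 150 mM NaCl with SYPRO Orange, heated 25→95 °C at 0.03 °C/s in a PCR melt-curve run. Tm was taken per treatment; ΔTm is the shift relative to DMSO vehicle.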

T3 sequence (Q9NZQ7 19-238 limits assumed): as the sequence (Q9NZQ7 19-238) above

With `COc1nc(-c2cccc(-c3cccc(NC(=O)c4nc5c(n4C)CCN(C)C5)c3Cl)c2Cl)ncc1CN1CC2(C1)CN(C(C)=O)C2` [Embodiment 222, N-(3′-(5-((6-Acetyl-2,6-diazaspiro[3.3]heptan-2-yl)methyl)-4-methoxypyrimidin-2-yl)-2,2′-dichloro-[1,1′-biphenyl]-3-yl)-1,5-dimethyl-4,5,6,7-tetrahydro-1H-imidazo[4,5-c]pyridine-2-carboxamide], the “Jurkat-PD1 inhibition rate (%)” value in assay [1] is 36%. Also, the IC50 in assay [1] (Homo sapiens, Jurkat) was more than 10 µM; in the assay with MC38-hPDL1 cells (Mus musculus, MC38-hPD-L1, 72 hours), more than 10 µM; at human PD-1/PD-L1 binding, 5.2 nM. Besides, the Emax in assay [2] was determined as 92%. Moreover, in the assay on MC38-hPDL1 cells (72 hours), the “MC38-hPDL1 inhibition rate (%)” value is reported as 0%.
The compound `COc1nc(-c2cccc(-c3cccc(NC(=O)c4nc5c(n4C)CCN(C)C5)c3Cl)c2Cl)ccc1CN1CC(CNC(C)=O)C1` [Embodiment 181, N-(3′-(5-((3-(Acetylaminomethyl)azetidin-1-yl)methyl)-6-methoxypyridin-2-yl)-2,2′-dichloro-[1,1′-biphenyl]-3-yl)-1,5-dimethyl-4,5,6,7-tetrahydro-1H-imidazo[4,5-c]pyridine-2-carboxamide] returned an EC50 in assay [3] of 59 nM. Further, the ΔTm at 10 µM at human PD-L1 protein stood at 15 °C. For the same compound, the Emax in assay [2] is 97%. Moreover, the IC50 on human PD-1/PD-L1 binding stood at 3.4 nM.
In the case of `CNC(=O)C1CN(Cc2ccc(-c3cccc(-c4cccc(NC(=O)c5nc6c(n5C)CCN(C)C6)c4Cl)c3Cl)nc2OC)C1` [Embodiment 184, N-(2,2′-Dichloro-3′-(6-methoxy-5-((3-(methylcarbamoyl)azetidin-1-yl)methyl)pyridin-2-yl)-[1,1′-biphenyl]-3-yl)-1,5-dimethyl-4,5,6,7-tetrahydro-1H-imidazo[4,5-c]pyridine-2-carboxamide], in assay [3], the EC50 was 62 nM and the maximal fold induction amounted to 2.8. Further, the ΔTm at 10 µM at human PD-L1 protein is 16.7 °C. Besides, the Emax in assay [2] amounted to 96%. The IC50 on human PD-1/PD-L1 binding is 7 nM.
Take `COc1nc(-c2cccc(-c3cccc(NC(=O)c4nc5c(n4C)CCN(C)C5)c3Cl)c2Cl)ccc1CN1CC2(CCN(C(C)=O)C2)C1` [Embodiment 195, N-(3′-(5-((6-Acetyl-2,6-diazaspiro[3.4]octan-2-yl)methyl)-6-methoxypyridin-2-yl)-2,2′-dichloro-[1,1′-biphenyl]-3-yl)-1,5-dimethyl-4,5,6,7-tetrahydro-1H-imidazo[4,5-c]pyridine-2-carboxamide]: in assay [3], the EC50 worked out at 89 nM and the maximal fold induction came out at 3.6. In addition, the ΔTm at 10 µM at human PD-L1 protein is 14.5 °C. The Emax in assay [2] was determined as 96%. In addition, the IC50 at human PD-1/PD-L1 binding is 3.6 nM.
Consider `COc1nc(-c2cccc(-c3cccc(NC(=O)c4nc5c(n4C)CCN(C)C5)c3Cl)c2Cl)ccc1CN1CC2(CN(C=O)C2)C1` [Embodiment 193, N-(2,2′-Dichloro-3′-(5-((6-formyl-2,6-diazaspiro[3.3]heptan-2-yl)methyl)-6-methoxypyridin-2-yl)-[1,1′-biphenyl]-3-yl)-1,5-dimethyl-4,5,6,7-tetrahydro-1H-imidazo[4,5-c]pyridine-2-carboxamide], for which, in assay [3], the EC50 is 84 nM and the maximal fold induction worked out at 2.8. At human PD-L1 protein, the ΔTm at 10 µM was determined as 12.3 °C. In assay [2], the Emax was determined as 96%. Further, the IC50 at human PD-1/PD-L1 binding was found to be 6.4 nM.
Regarding `COc1cc(C(=O)Nc2cccc(-c3cccc(NC(=O)c4nc5c(n4C)CCN(C)C5)c3Cl)c2C)ncc1CNCC(C)O` (stereo in doubt) [Embodiment 38, (S)—N-(2-Chloro-3′-(5-(((2-hydroxypropyl)amino)methyl)-4-methoxypicolinamido)-2′-methyl-[1,1′-biphenyl]-3-yl)-1,5-dimethyl-4,5,6,7-tetrahydro-1H-imidazo[4,5-c]pyridine-2-carboxamide], in assay [3], the EC50 was found to be 46 nM and the maximal fold induction amounted to 3.7. In assay [2], the Emax was 96% and the IC50 amounted to 0.6 nM. The IC50 on human PD-1/PD-L1 binding is 2.8 nM.
For `COc1cc(C(=O)Nc2cccc(-c3cccc(NC(=O)c4nc5c(n4C)CCN(C)C5)c3Cl)c2C)ncc1CNCCNC(C)=O` [Embodiment 40, N-(3′-(5-(((2-Acetylaminoethyl)amino)methyl)-4-methoxypicolinamido)-2-chloro-2′-methyl-[1,1′-biphenyl]-3-yl)-1,5-dimethyl-4,5,6,7-tetrahydro-1H-imidazo[4,5-c]pyridine-2-carboxamide], in assay [3], the EC50 is 75 nM and the maximal fold induction was found to be 4. Further, in assay [2], the Emax came to 97% and the IC50 is 1.4 nM. Also, the IC50 at human PD-1/PD-L1 binding amounted to 2 nM.
With `COc1nc(-c2cccc(-c3cccc(NC(=O)c4nc5c(n4C)CCN(C)C5)c3Cl)c2Cl)ccc1CN1CCC2(CC1)CN(C(C)=O)C2` [Embodiment 197, N-(3′-(5-((2-Acetyl-2,7-diazaspiro[3.5]nonan-7-yl)methyl)-6-methoxypyridin-2-yl)-2,2′-dichloro-[1,1′-biphenyl]-3-yl)-1,5-dimethyl-4,5,6,7-tetrahydro-1H-imidazo[4,5-c]pyridine-2-carboxamide], in assay [3], it took 67 nM to reach a half-maximal effect (EC50) and the maximal fold induction worked out at 3.5. Further, the ΔTm at 10 µM on human PD-L1 protein was found to be 16 °C. Besides, in assay [2], the Emax is 93%. At human PD-1/PD-L1 binding, the IC50 turned out to be 4.3 nM.
Regarding `COc1cc(C(=O)Nc2cccc(-c3cccc(NC(=O)c4nc5c(n4C)CCN(C)C5)c3Cl)c2C)ncc1CNC1COC1` [Embodiment 36, N-(2-Chloro-3′-(4-methoxy-5-((oxetan-3-ylamino)methyl)picolinamido)-2′-methyl-[1,1′-biphenyl]-3-yl)-1,5-dimethyl-4,5,6,7-tetrahydro-1H-imidazo[4,5-c]pyridine-2-carboxamide], in assay [3], a half-maximal response (EC50) required 93 nM and the maximal fold induction came out at 3.1. Besides, in assay [2], the Emax amounted to 94% and the IC50 amounted to 3.1 nM. In addition, the IC50 on human PD-1/PD-L1 binding was found to be 5 nM.
